Experimental data from PubChem BioAssay AID179 (DTP/NCI, 2004).
Active and inactive are the calls of the source.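 Rule for the calls: active = compounds giving half or more protection of infected cells from virus-caused growth loss, again on retest; inactive = the rest.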 Where a SMILES comes first, the peptide text is derived from it. The star is where a group is joined. Cbz = O=C(OCc1ccccc1)*

System: CEM cells HIV-1 protection, formazan growth assay
Assay: NCI AIDS Antiviral Assay
Settings: for IC50: measured here: growth of uninfected CEM cells
Procedure, shortened: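 Steps: treat uninfected and HIV-1-infected human CEM cells at five drug levels; quantify growth by soluble formazan; retest any compound reaching 50% protection; classify actives from the retest.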

Row | SMILES | EC50 [µM] | IC50 [µM] | outcome
1 | COC(=O)c1onc(C2OC(C)(C)OC2C(O)COC(c2ccccc2)(c2ccccc2)c2ccccc2)c1C(=O)OC (stereo not drawn) | > 200 | 15.1 | 
2 | CCOC(=O)C1=C(N)Oc2cc(O)cc(O)c2C1c1ccccc1 (stereo not drawn) |  |  | inactive
3 | CN(NC(=O)c1cccs1)C1=NCCCN1 | > 200 | > 200 | 
4 | Cc1nc2c(=O)[nH]c(=O)n(C)c2[nH]c1=O | > 34.7 | > 34.7 | 
5 | Cc1ccc2[c](c1)[Sn]([c]1ccccc1)([c]1ccccc1)[c]1cc(C)ccc1N2C | > 26.3 | 10.2 | 
6 | O=C1Sc2cc([N+](=O)[O-])ccc2C(=O)N2CSCC12 (stereo not drawn) | > 50.1 | > 50.1 | 
7 | Cc1cn(CCOCCOC(=O)NC(CCCNC(N)=O)C(=O)O)c(=O)[nH]c1=O (stereo not drawn) | > 200 | > 200 | 
8 | CC1(C2CCC3(C)C(C2)C3Sc2ccccc2)OCCO1 (stereo not drawn) |  |  | inactive
9 | O=C1OC(CS(=O)(=O)c2ccccc2)CC1O (stereo not drawn) | > 200 | > 200 | 
10 | CN(C)c1ccc(C(=C2C=CC(=[N+](C)C)C=C2)c2c(O)c(S(=O)(=O)O)cc3cc(S(=O)(=O)O)ccc23)cc1 |  |  | inactive
11 | COC(=O)/C=C1\C(CO[Si](C)(C)C(C)(C)C)OC(n2ccc(=O)[nH]c2=O)C1O[Si](C)(C)C(C)(C)C (stereo not drawn) | > 200 | 8.32 | 
12 | C[N+]1(CCCl)CCc2ccc([N+](=O)[O-])cc2C1 (stereo not drawn) | > 200 | > 200 | 
13 | CCO/C=C/c1cc2c(c3c1-c1c(cc(OC)c(OC)c1OC)C3=O)OCO2 | > 6.46 | > 6.46 | 
14 | CC(=O)Nc1ccc(/C=C(\C#N)c2ccc(C)cc2)cc1 | > 200 | > 200 | 
15 | COc1ccc(/C=C2\CCCCC2=O)cc1 |  |  | inactive
16 | C=C[C@]1(O)CCC[C@]2(C)C(=O)CCC12C (stereo partly drawn) |  |  | inactive
17 | COCC1C(=O)c2cc3c(cc2C12C=CC1(C=C2)OCCO1)OCO3 (stereo not drawn) | > 275 | 11 | 
18 | COC(=O)c1cc(C)n(NC(=O)OC(C)(C)C)c1C | > 251 | > 251 | 
19 | C=C1C(=O)[C@]23C[C@H]1CC(O)[C@H]2C1(CCC[C@@](C)(COC(C)=O)C1C=O)COC3=O (stereo partly drawn) |  |  | inactive
20 | C/C=C/c1cc(=O)c([C@@H]2OC(=O)c3cc(OC)cc(OC)c32)co1 | > 200 | 83.2 | 
21 | CC1(C23CC4CC(CC(C4)C2)C3)n2c(=O)n(-c3ccccc3)c(=O)n2C1(C)C12CC3CC(CC(C3)C1)C2 (stereo not drawn) | > 50.1 | > 50.1 | 
22 | Cc1ncc(-c2nnnn2-c2ccccc2)c(C(=O)O)n1 | > 200 | > 200 | 
23 | Nc1c(S(=O)(=O)O)cc(S(=O)(=O)O)c2ccc(N=Nc3ccc(CCc4ccc(N=Nc5ccc6c(S(=O)(=O)O)cc(S(=O)(=O)O)c(N)c6c5O)cc4S(=O)(=O)O)c(S(=O)(=O)O)c3)c(O)c12 | 8.13 | 138 | 

Row | SMILES | EC50 [µM] | IC50 [µM] | outcome
24 | CCCCC1c2c([nH]c3ccccc23)C2C(=O)N(c3ccc(OC)cc3)C(=O)C2C1CCC (stereo not drawn) | > 200 | 3.55 | 
25 | CN(C)/N=C1/CCC(C(F)(F)F)(C(F)(F)F)O1 | > 200 | 6.76 | 
26 | CCOC(=O)CNC(=O)C(C)NC(=O)C(NC(=O)OCc1ccccc1)C(C)C (stereo not drawn) (Cbz-Val-Ala-Gly-OEt; configuration not given here) | > 200 | 115 | 
27 | CC1(C)CC23CC(C)(C)c4cccc(c42)OCc2ccc4ccc5ccc(nc5c4n2)COc2cccc1c23 | > 50.1 | > 50.1 | 
28 | CCCCCc1cc(O)c2c3c(c(=O)oc2c1)CP(=O)(c1ccccc1)CC3 (stereo not drawn) | > 25.1 | 19.1 | 
29 | Cc1nc2c(sc3nc4c(cc32)CCC4)c(=O)o1 | > 100 | 53.7 | 
30 | COc1ccc(-n2cnc3c(NC(Cc4ccccc4)C(=O)O)ncnc32)cc1 (stereo not drawn) | > 200 | 2 | 
31 | OC1c2ccccc2CCC1C(O)(C(F)(F)F)C(F)(F)F (stereo not drawn) | > 200 | 85.1 | 
32 | Cc1ccc(C2=C(C#N)C(=O)N3CCN=C3S2)cc1 | > 200 | > 100 | 
33 | O=C1OCOC2(CCCC2)C1c1ccccc1 (stereo not drawn) | > 200 | 120 | 
34 | COc1cc(-c2cc(=O)c3c(O)c(OC)c(OC)cc3o2)ccc1O | > 11 | > 11 | 
35 | CC1=CC(=O)c2c(O)cccc2C1=O | > 2 | 0.912 | 
36 | COc1cc2ccnc3c2c(c1OC)-c1coc(SC)c1-3 |  |  | inactive
37 | CC(NC(=O)OCc1ccccc1)C(=O)NC(C(=O)O)C(C)C (stereo not drawn) | > 776 | > 776 | 
38 | [N-]=[N+]=NCc1nc(N)c2c3c(sc2n1)CCCC3 | > 200 | 1.12 | 
39 | COc1ccccc1Nc1nc(N)nc(N)c1N | > 200 | 36.3 | 
40 | O=Cc1ccc(-c2cccc([N+](=O)[O-])c2)s1 | > 200 | 166 | 
41 | CC(C)(C)c1cc(CCC(=O)Nc2ccc(Cl)cc2)nc(NC#N)n1 | > 692 | > 692 | 
42 | COc1ccc2[nH]c3c(c2c1)CCc1ccccc1-3 |  |  | inactive
43 | S=C(Nc1ccccc1)Nc1ccccc1S | > 200 | 112 | 
44 | CC(=O)N=C1N(/C=C2\C(=O)Oc3ccccc3C2=O)C(=O)/C(=C/c2ccccc2Cl)N1C | > 200 | 148 | 
45 | COc1ccc2c(c1)C1(C=N2)CCN(C(C)=O)CC1 | > 138 | > 138 | 
46 | COC1OC2COc3ccccc3OC2C2C1N2C(N)=O (stereo not drawn) |  |  | inactive
